Drawing on US8299296B2, “Spiro compounds and pharmaceutical use thereof” (Japan Tobacco Inc., priority 2007, dated 2012), this text covers EC50 for 31 compounds.

For this assay, the target named is T1, human GPR40 (Homo sapiens, UniProt O14842).
T1 construct: expressed in transfected cells
Put plainly: Ca2+ mobilization (FLIPR) in a stable GPR40-expressing cell; GPR40 agonist activity. The assay is classed as cell-based. The note with it: compound concentration corresponding to 50% PosiC, 100% = intracellular calcium level induced by 80 μM palmitic acid. On the procedure:
Evaluation of effect of test compounds on Ca^2+ mobilization by using a stable GPR40-expressing cell A stable human GPR40-expressing HEK293 cell was used. A cell suspension was prepared such that the above-mentioned cells were present at 6×10^5 cells/mL in a cell culture medium (D-MEM (Nikken Bio Medical Laboratory) supplemented with 10% (v/v) fetal bovine serum (Biowest) and 1% (v/v) penicillin-streptomycin solution (Invitrogen)). The cell suspension was plated in a 384-well plate (poly-D-lysine coated plate; Falcon) in a volume of 25 μl/well, and the plate was incubated at 37° C. in an atmosphere of 5% CO2 overnight. Each test compound was added to the cell at each concentration as below, and then the change in intracellular calcium level was measured by FLIPR^TETRA (Molecular Devices). Before the FLIPR assay, the following preparative solutions were prepared. First, an assay buffer was prepared for use in the preparation of a fluorescent dye solution and a diluent buffer solution. The assay buffer was prepared by adding 1M HEPES solution (Invitrogen) to Hanks' Balanced Salt Solution (Invitrogen), followed by adjusting the pH to 7.4 with 1M NaOH (Nacalai Tesque). Next, the fluorescent dye solution and the diluent buffer solution were prepared. The fluorescent dye solution was prepared in accordance with the instruction manual attached to Fluo-4NW calcium assay kit (Invitrogen), followed by addition of bovine serum albumin (Sigma) to a final concentration of 0.1% (w/v). The diluent buffer solution was prepared by adding bovine serum albumin (Sigma) to the assay buffer to give a final concentration of 0.1% (w/v). After removing a medium supernatant from the cell culture plate incubated overnight, the fluorescent dye solution was added to the plate in a volume of 25 μl/well. The plate was incubated at 37° C. in an atmosphere of 5% CO2 for 90 minutes to promote the fluorescent dye uptake in the cell. Meanwhile, the test compounds (i.e., the compounds prepared in Examples) dissolved in dimethyl sulfoxide (DMSO; Nacalai Tesque) were diluted with the diluent buffer solution, to prepare each compound solution at each concentration. In addition, a palmitic acid solution was prepared as a positive control solution (hereinafter abbreviated as PosiC). A 40 μl aliquot of each sample solution prepared as above was added to each well of a 384-well polypropylene plate to prepare a compound plate. Finally, after the sufficient uptake of the fluorescent dye in the cell, the cell plate and the compound plate were set to FLIPR^TETRA. After the above pretreatment, the change in intracellular calcium level was measured by FLIPR^TETRA upon addition of 25 μl of each test compound solution at each concentration. The GPR40 agonist activity of each test compound at each concentration was determined as a relative activity level (% PosiC) with the intracellular calcium level induced by 80 μM palmitic acid (a GPR40 agonist) set to 100%. Next, each compound concentration corresponding to 50% PosiC was calculated based on the % PosiC value, to compare between agonist activities of the test compounds. In the tables, “++++” indicates 0.01 μM or more but less than 0.1 μM, “+++” indicates 0.1 μM or more but less than 1 μM, “++” indicates 1 μM or more but less than 10 μM, and “+” indicates 10 μM or more for 50% posiC value. In the tables, “N.T.” indicates “not tested”.
(In general: A change in cytosolic calcium serves as a functional read-out for many receptors and channels.)

Counter-ions that a name gives are not always drawn.

T1 sequence (O14842 whole entry): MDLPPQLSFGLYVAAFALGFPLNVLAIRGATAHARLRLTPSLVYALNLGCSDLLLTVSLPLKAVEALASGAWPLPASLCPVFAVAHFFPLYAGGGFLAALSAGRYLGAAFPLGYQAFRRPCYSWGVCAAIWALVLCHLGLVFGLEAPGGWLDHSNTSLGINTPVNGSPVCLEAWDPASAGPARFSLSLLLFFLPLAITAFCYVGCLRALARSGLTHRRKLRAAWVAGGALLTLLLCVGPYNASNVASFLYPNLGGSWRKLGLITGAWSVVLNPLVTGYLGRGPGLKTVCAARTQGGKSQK

In general, EC50 refers to the concentration at which the effect is half-maximal. For the compound `O=C1NC(=O)C(Cc2ccc(OCC3CCCC4(CCCCC4)C3)cc2)S1` (racemic) [Example 67, 5-[4-(spiro[5.5]undec-2-ylmethoxy)-benzyl]-thiazolidine-2,4-dione], the EC50 is ≥ 10 µM. Consider `CCC[C@@H](CC(=O)O)c1ccc(OCC2CCCC3(CCCCC3)C2)cc1` (mixture of isomers) [Example 78, (3S)-3-[4-(spiro[5.5]undec-2-ylmethoxy)-phenyl]-hexanoic acid], for which the EC50 lay within 1 to 10 µM.

As to `CC#C[C@@H](CC(=O)O)c1ccc(OCC2=C[C@@]3(CCC2)CCC(=O)C3)cc1` [Example 97, (3S)-3-[4-((5S)-2-oxo-spiro[4.5]dec-6-en-7-ylmethoxy)-phenyl]-hex-4-ynoic acid sodium salt], the EC50 lay in the range of 0.1 to 1 µM. With `CC#C[C@@H](CC(=O)O)c1ccc(OCC2CCCC3(CCCC3)C2)cc1` (single isomer, unassigned) [Example 37], the EC50 lay within 0.1 to 1 µM. Consider `CC#C[C@@H](CC(=O)O)c1ccc(OCC2=CC3(CCCCC3)CC2)cc1` [Example 16, (S)-3-[4-(spiro[4.5]dec-1-en-2-ylmethoxy)-phenyl]-hex-4-ynoic acid sodium salt], for which the EC50 was in the range of 0.1 to 1 µM.

Turning to `O=C(O)CC(CO)c1ccc(OCC2CCCC3(CCCCC3)C2)cc1` (racemic) [Example 69, 4-hydroxy-3-[4-(spiro[5.5]undec-2-ylmethoxy)-phenyl]-butyric acid], the 50% effective concentration (EC50) fell in the range of 1 to 10 µM. As for `CC1CCCC(C)C12CCCC(COc1ccc(CCC(=O)O)cc1)C2` (racemic) [Example 51, 3-[4-(7,11-dimethyl-spiro[5.5]undec-2-ylmethoxy)-phenyl]-propionic acid], the 50% effective concentration (EC50) was 1 to 10 µM. Take `COC(CC(=O)O)c1ccc(OCC2CCCC3(CCCCC3)C2)cc1` (racemic) [Example 80, 3-methoxy-3-[4-(spiro[5.5]undec-2-ylmethoxy)-phenyl]-propionic acid]: the EC50 lay in the range of 1 to 10 µM. Take `O=C(O)CCc1ccc(OCC2=CC3(CCC3)CC2)cc1` [Example 117, 3-[4-(spiro[3.4]oct-5-en-6-ylmethoxy)-phenyl]-propionic acid]: the EC50 fell in the range of 1 to 10 µM. Turning to `O=C(O)CCc1ccc(OCC2CCCC3(CCCCC3)C2)cc1` (single isomer, unassigned) [Example 89, 3-[4-(spiro[5.5]undec-2-ylmethoxy)-phenyl]-propionic acid (chiral: B)], the EC50 lay within 1 to 10 µM. For the compound `O=C(O)CCc1ccc(OCC2CCC3(CCCCCC3)C2)cc1` (racemic) [Example 21, 3-[4-(spiro[4.6]undec-2-ylmethoxy)-phenyl]-propionic acid], the EC50 was ≥ 10 µM. For `CC#C[C@@H](CC(=O)O)c1ccc(OC2CCCC3(CCCCC3)C2)cc1` (mixture of isomers) [Example 64, (3S)-3-[4-(spiro[5.5]undec-2-yloxy)-phenyl]-hex-4-ynoic acid] the value was 0.1 to 1 µM; for `CC#C[C@@H](CC(=O)O)c1ccc(OCC2=CCC3(CCCCC3)C2)cc1` [Example 14, (S)-3-[4-(spiro[4.5]dec-2-en-2-ylmethoxy)-phenyl]-hex-4-ynoic acid sodium salt], 0.1 to 1 µM; for `C#CC(CC(=O)O)c1ccc(OCC2CCCC3(CCCCC3)C2)cc1` (racemic) [Example 85, 3-[4-(spiro[5.5]undec-2-ylmethoxy)-phenyl]-pent-4-ynoic acid], 1 to 10 µM.

For the compound `O=C(O)CCc1ccc(OCC2=CC3(CCCC3)CCC2)c(F)c1` [Example 112, 3-[3-fluoro-4-(spiro[4.5]dec-6-en-7-ylmethoxy)-phenyl]-propionic acid], the EC50 was ≥ 10 µM. `CC#C[C@@H](CC(=O)O)c1ccc(OC2CCC3(CCCCC3)CC2)cc1` [Example 63, (3S)-3-[4-(spiro[5.5]undec-3-yloxy)-phenyl]-hex-4-ynoic acid]: the EC50 fell in the range of 0.1 to 1 µM. On to `CC#C[C@@H](CC(=O)O)c1ccc(OCC2=CCCC3(CCCCC3)C2)cc1` [Example 2, (S)-3-[4-(spiro[5.5]undec-2-en-2-ylmethoxy)-phenyl]-hex-4-ynoic acid sodium salt], for which the EC50 was in the range of 0.01 to 0.1 µM.

Regarding `CC#C[C@@H](CC(=O)O)c1ccc(OCC2CCCC3(CCCCC3)C2)cc1` (mixture of isomers) [Example 28, (3S)-3-[4-(spiro[5.5]undec-2-ylmethoxy)-phenyl]-hex-4-ynoic acid], the EC50 was in the range of 0.01 to 0.1 µM.

Turning to `CC#CC(CC(=O)O)c1ccc(OCC2CCCC3(CCCCC3)C2)cc1` (racemic) [Example 47, 3-[4-(spiro[5.5]undec-2-ylmethoxy)-phenyl]-hex-4-ynoic acid], the EC50 lay within 0.1 to 1 µM. Next, `CC#C[C@@H](CC(=O)O)c1ccc(OCC2CCC3(CCCCC3)CC2)cc1` [Example 24, (S)-3-[4-(spiro[5.5]undec-3-ylmethoxy)-phenyl]-hex-4-ynoic acid]: 0.1 to 1 µM; `C=CC(CC(=O)O)c1ccc(OCC2CCCC3(CCCCC3)C2)cc1` (racemic) [Example 86, 3-[4-(spiro[5.5]undec-2-ylmethoxy)-phenyl]-pent-4-enoic acid]: 1 to 10 µM.

`CC1(C)CCCCC12CCCC(COc1ccc(CCC(=O)O)cc1)C2` (racemic) [Example 56, 3-[4-(7,7-dimethyl-spiro[5.5]undec-2-ylmethoxy)-phenyl]-propionic acid]: the EC50 fell in the range of 1 to 10 µM.

As to `CC#C[C@@H](CC(=O)O)c1ccc(OCC2CCC3(CCCC3)CC2)cc1` [Example 22, (S)-3-[4-(spiro[4.5]dec-8-ylmethoxy)-phenyl]-hex-4-ynoic acid], the EC50 is 0.1 to 1 µM.

Consider `CC#C[C@@H](CC(=O)O)c1ccc(OCC2=CCC3(CCCCC3)CC2)cc1` [Example 73, (3S)-3-[4-(spiro[5.5]undec-2-en-3-ylmethoxy)-phenyl]-hex-4-ynoic acid], for which the EC50 fell in the range of 0.1 to 1 µM. For `O=C(O)CCc1ccc(OCC2=CC3(CCCC3)CCC2)c(O)c1` [Example 110, 3-[3-hydroxy-4-(spiro[4.5]dec-6-en-7-ylmethoxy)-phenyl]-propionic acid], the EC50 lay within 0.1 to 1 µM. As for `O=C(O)CC(c1ccc(OCC2CCCC3(CCCCC3)C2)cc1)c1ncco1` (racemic) [Example 66, 3-oxazol-2-yl-3-[4-(spiro[5.5]undec-2-ylmethoxy)-phenyl]-propionic acid], the EC50 lay within 0.1 to 1 µM. `CC#C[C@H](c1ccc(OCC2CCCC3(CCCCC3)C2)cc1)C1SC(=O)NC1=O` (mixture of isomers) [Example 68, 5-{(1S)-1-[4-(spiro[5.5]undec-2-ylmethoxy)-phenyl]-but-2-ynyl}-thiazolidine-2,4-dione]: the EC50 lay in the range of 1 to 10 µM. As for `COc1cc(CCC(=O)O)ccc1OCC1=CC2(CCCC2)CCC1` [Example 111, 3-[3-methoxy-4-(spiro[4.5]dec-6-en-7-ylmethoxy)-phenyl]-propionic acid], the EC50 was ≥ 10 µM.

As to `CNC(=O)C(CC(=O)O)c1ccc(OCC2CCCC3(CCCCC3)C2)cc1` (racemic) [Example 65, N-methyl-3-[4-(spiro[5.5]undec-2-ylmethoxy)-phenyl]-succinamic acid], the EC50 fell in the range of 1 to 10 µM. Consider `O=C(O)CCc1ccc(OCC2CCCC3(CCCCC3)C2)cc1` (single isomer, unassigned) [Example 88, 3-[4-(spiro[5.5]undec-2-ylmethoxy)-phenyl]-propionic acid (chiral: A)], for which the EC50 lay in the range of 1 to 10 µM.

Consider `CN(C)C(=O)C(CC(=O)O)c1ccc(OCC2CCCC3(CCCCC3)C2)cc1` (racemic) [Example 59, N,N-dimethyl-3-[4-(spiro[5.5]undec-2-ylmethoxy)-phenyl]-succinamic acid], for which the EC50 was 0.1 to 1 µM.
